Measurements published in patent US20210154359A1, “FIBRILLAR-PROTEIN BASED COMPOSITIONS AND USES THEREOF” (Hi-Aspect Limited, priority 2017, published 2021).
≈ marks a conversion by molar mass, not a printed value. Like-named read-outs stand apart in the source and are kept apart here.

Columns and labels:
[1] = agent in water, in words; cited from earlier work
[2] = Loading capacity of protein composition C with hydrophilic and hydrophobic agents; assay type: physicochemical; settings: in protein composition C, room temperature
[3] = tested on: 3T3; assay: In Vitro 3T3 NRU Phototoxicity Test (OECD 432); assay type: cell-based; settings: for IC50: Mus musculus, NIH3T3, light or radiation study
[4] = loading trial to date, not maximum loading
[5] = read-out: Cell Viability IC50 Minus UVA
[6] = read-out: Cell Viability IC50 Plus UVA

SMILES: CCCCCCCCCCCCCCCC(=O)OC/C=C(C)/C=C/C=C(C)/C=C/C1=C(C)CCCC1(C)C [Retinyl palmitate]
- Solubility (water) [1]: Insoluble
- Loading [2, 4]: 25 mg/g

SMILES: CN(C)CCCN1c2ccccc2Sc2ccc(Cl)cc21 [Chlorpromazine]
- Comment (phototoxicity) [3]: Phototoxic
- Mean MPE [3]: 0.510
- Mean PIF [3]: 70
- IC50 [3, 5]: 7 µg/mL (≈ 22 µM)
- IC50 [3, 6]: 0.1 µg/mL

SMILES: CN(C)c1ccc2nc3ccc(=[N+](C)C)cc-3sc2c1 [Methylene blue]
- Loading [2, 4]: 10 mg/g

SMILES: O=C1O[C@H]([C@@H](O)CO)C(O)=C1O [Ascorbic acid]
- Loading ([2]; maximum loading): 350 mg/g

SMILES: O=C(O)c1ccccc1 [Benzoic acid]
- Loading [2, 4]: 10 mg/g

SMILES: CC1=C(/C=C/C(C)=C/C=C/C(C)=C/C=O)C(C)(C)CCC1 [Retinal]
- Solubility (water) [1]: Nearly insoluble
- Loading [2, 4]: 1 mg/g

SMILES: Cn1c(=O)c2c(ncn2C)n(C)c1=O [Caffeine]
- Loading ([2]; maximum loading): 350 mg/g

SMILES: C=C[C@H]1C[N@@]2CC[C@H]1C[C@H]2[C@H](O)c1ccnc2ccc(OC)cc12 [Quinine sulphate]
- Loading [2, 4]: 10 mg/g

SMILES: N[C@@H](Cc1c[nH]cn1)C(=O)O [Histidine]
- Mean MPE [3]: −0.016
- Mean PIF [3]: 1.0
- IC50 [3, 5]: > 1000 µg/mL
- IC50 [3, 6]: > 1000 µg/mL

SMILES: N[C@@H](Cc1c[nH]c2ccccc12)C(=O)O [Tryptophan]
- Loading ([2]; maximum loading): 350 mg/g
